Results published in patent publication US20070021391A1, “Preventive/remedy for urinary disturbance” (priority 2003, published 2007).
Structures can show the parent of a compound that is named as a salt. Where two headings read alike, the source gives them in different places.

What was measured:
[1] = test system: Hartley male guinea pig, urethane anesthesia; assay: Pressure/flow study using guinea pig (Example 3); format: in vivo; settings: for Amount of urination, proportion for value before administration (%) / At maximum urine flow rate Inner pressure of bladder, proportion for value before administration (%) / Maximum urine flow rate, proportion for value before administration (%): i.v.; for Bladder compliance, proportion for value before administration (%) / Bladder volume, proportion for value before administration (%): iv; for change of the parameters at urination and at collection of urine (text): intravenous administration
Description: A Hartley male guinea pig of 5 weeks old (Japan SLC) was used. After urethane anesthesia, the medial incision of the lower abdomen was carried out, and the bladder was exposed. Two injection needles (20G) with which a polyethylene tube (PE-100) was linked were inserted in the bladder, and one needle was used for injection of saline and another needle was used for measurement of the inner pressure of the bladder. The injection of saline was continuously carried out at a rate of 18 mL/h using a syringe pump (SP-100S, JMS, and Hiroshima), the injection was stopped after intermittent urination was confirmed 3 times at minimum, and the saline in the bladder was removed by suction. Injection was started again, and the injection was stopped when the raise of the inner pressure of the bladder just before urination was confirmed. The amount of urine excreted was measured by an electronic weighing machine (HX-400, A&D, and Tokyo) and the inner pressure of the bladder was measured using a pressure transducer (AP641G, NIPPON KODEN Corporation). The analogue data of the weight of urine and the inner pressure of the bladder were inputted in a multi-channel data analyzer (MP-100A-CE, Biopac systems), and analyzed by a proprietary software (Acqknowledge, Biopac systems). The sampling interval of data was 0.1 second and a low pass filter was applied to the data of discharge amount and urine flow rate at 0.5 Hz in order to remove noise. A delay time of 0.1 second in weighing the urine was rectified, and the urine flow rate was determined by differentiating the value of discharge amount. After a value before twice administration of the drug was measured, the drugs (the compound A, distigmine, neostigigmine and bethanechol) were intravenously administrated. Saline in the bladder was extracted after 10 minutes of administration of the compound A, bethanechol and neostigigmine and after 30 minutes of administration of distigmine, and injection was started again to measure data. The drugs were dissolved with distilled water so that administration volume was 0.5 mL/kg. Parameters (bladder volume, the amount of urination, the maximum urine flow rate, the inner pressure of the bladder at the maximum urine flow, bladder compliance) below were measured. The bladder compliance was calculated from intersection point (the threshold of bladder volume, threshold pressure) which was obtained by determining regression line in the respective curves of the inner pressure of the bladder at collection of urine and urinary reflex. The change rate before and after administration of the drug was calculated for the respective parameters and the calibration of significant difference was carried out by a solvent administration group and Dunnett calibration (Table 6 and Table 7).

[2] = test system: Hartley male guinea pig, urethane anesthesia; assay: Pressure/flow study using guinea pig under continuous phenylephrine (Example 4); format: in vivo; settings: i.v., phenylephrine 3 μg/animal/min
Description: A parameter (the maximum urine flow rate) at urination and a parameter (bladder compliance) at the collection of urine were also measured by a method similar as Example 3 shown below, with respect to the compounds B1 to B6 ([Table 8]).
A Hartley male guinea pig of 4 to 5 weeks old (Japan SLC) was used. After urethane anesthesia, the medial incision of the lower abdomen was carried out, and the bladder was exposed. Two injection needles (20G) with which a polyethylene tube (PE-100) was linked were inserted in the bladder, and one needle was used for injection of saline and another needle was used for measurement of the inner pressure of the bladder. A catheter was inserted in fernoral vein, and phenylephrine was continuously administrated at a flow rate of 3 μg/animal/min. Saline was continuously injected at a speed of 18 mL/h, the injection was stopped after intermittent urination was confirmed 2 times at minimum, and the saline in the bladder was removed by suction. Injection was started again, and the injection was stopped when the raise of the inner pressure of the bladder just before urination was confirmed. The amount of urine eliminated was measured by an electronic weighing machine and the inner pressure of the bladder was measured using a pressure transducer. The analogue data of the weight of urine and the inner pressure of the bladder were inputted in a multi-channel data analyzer (MP-100A-CE, Biopac systems), and analyzed by a proprietary software (Acqknowledge, Biopac systems). As the parameters, the maximum urine flow rate and bladder compliance were measured. Saline in the bladder was extracted after 10 min of the intravenous administration of the compound, and injection was started again to carry out measurement. The compounds were dissolved with DMSO so that administration volume was 0.5 mL/kg. The change rate of respective parameters before and after administration of the compounds was calculated and the calibration of significant difference was carried out by a solvent administration group and t calibration.

[3] = target: T1, butyrylcholine esterase of human serum origin (Homo sapiens, UniProt P06276); assay: biochemical; format: biochemical; settings: for IC50: mean value of twice tests
T1 construct: butyrylcholine esterase of human serum origin; purchased Biogenesis, Poole, UK; host or cells: human serum
Description: (§1) The AChE inhibitory activity and the BuChE inhibitory activity were determined by a thiocholine method (Ellman method) using acetylcholine esterase of human erythrocyte origin (Sigma, St. Louis, Mo., USA) and butyrylcholine esterase of human serum origin (Biogenesis, Poole, UK). Acetylcholine esterase or butyrylcholine esterase was diluted to a concentration of 0.2 IU/mL with 80 mM tris-HCL buffers (pH=7.4) containing 0.3% bovine serum albumin (BSA) to prepare an enzyme preparation. […] The stock solution was diluted at 3-fold common ratio with 10% DMSO and 80 mM tris-HCl buffers containing 0.3% BSA. On a 96 wells microplate, 20 μL of the drug solution with a given concentration, 30 μL of 80 mM tris-HCl buffers containing 0.3% BSA and 50 μL of the enzyme preparation were distributed, and incubated at room temperature for 1 hour after shaking for 10 seconds. […] For the respective drugs, the test was repeated twice. The % of control of the increase in light absorption was calculated at each concentration with respect to the respective drugs. % of control=increase in light absorption of drug/increase in light absorption of control×100

[4] = target: T2, acetylcholine esterase of human erythrocyte origin (Homo sapiens, UniProt P22303); assay: biochemical; format: biochemical; settings: for IC50: mean value of twice tests
T2 construct: acetylcholine esterase of human erythrocyte origin; purchased Sigma, St. Louis, Mo., USA; host or cells: human erythrocytes
Description: as §1

bladder muscle = test system: bladder muscle; parameters: species or system guinea pig; settings: for effect on basic tension: drug alone
[5] = 0.3 μM, 30 minutes, change of basic tension, 100 mM KCl contraction = 100%
[6] = 1 μM, 30 minutes, change of basic tension, 100 mM KCl contraction = 100%
[7] = 3 μM, 30 minutes, change of basic tension, 100 mM KCl contraction = 100%

T2 sequence (P22303 32-617 isoform P22303-2 limits assumed): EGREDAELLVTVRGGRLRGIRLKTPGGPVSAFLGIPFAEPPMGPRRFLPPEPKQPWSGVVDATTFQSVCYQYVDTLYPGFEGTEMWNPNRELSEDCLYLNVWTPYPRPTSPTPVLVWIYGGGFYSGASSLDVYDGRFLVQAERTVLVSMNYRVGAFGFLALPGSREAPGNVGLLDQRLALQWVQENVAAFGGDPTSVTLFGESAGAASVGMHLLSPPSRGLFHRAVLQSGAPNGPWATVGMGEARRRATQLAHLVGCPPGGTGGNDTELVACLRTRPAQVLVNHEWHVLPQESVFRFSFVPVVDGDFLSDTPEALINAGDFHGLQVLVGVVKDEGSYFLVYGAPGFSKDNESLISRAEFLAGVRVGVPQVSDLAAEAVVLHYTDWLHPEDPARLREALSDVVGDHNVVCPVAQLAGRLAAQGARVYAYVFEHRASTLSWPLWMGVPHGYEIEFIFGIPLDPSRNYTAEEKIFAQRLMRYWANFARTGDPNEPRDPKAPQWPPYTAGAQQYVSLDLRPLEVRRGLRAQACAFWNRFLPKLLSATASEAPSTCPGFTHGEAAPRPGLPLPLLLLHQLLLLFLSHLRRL
T1 sequence (P06276 29-602): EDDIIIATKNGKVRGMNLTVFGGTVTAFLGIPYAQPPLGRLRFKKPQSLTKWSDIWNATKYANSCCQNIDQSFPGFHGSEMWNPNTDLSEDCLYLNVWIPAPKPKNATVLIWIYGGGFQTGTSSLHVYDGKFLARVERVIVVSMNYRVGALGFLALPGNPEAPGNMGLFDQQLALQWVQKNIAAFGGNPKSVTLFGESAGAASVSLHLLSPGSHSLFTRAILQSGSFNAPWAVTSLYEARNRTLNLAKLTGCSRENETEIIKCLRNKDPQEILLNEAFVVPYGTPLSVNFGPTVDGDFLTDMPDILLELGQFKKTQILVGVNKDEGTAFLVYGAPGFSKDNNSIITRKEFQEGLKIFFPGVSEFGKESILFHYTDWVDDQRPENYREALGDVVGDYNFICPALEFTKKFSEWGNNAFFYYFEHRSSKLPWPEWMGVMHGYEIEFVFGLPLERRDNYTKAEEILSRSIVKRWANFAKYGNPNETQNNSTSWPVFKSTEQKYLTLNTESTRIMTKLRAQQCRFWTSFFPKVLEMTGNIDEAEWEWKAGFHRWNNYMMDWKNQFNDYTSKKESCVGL

Compound: CC(C[N+](C)(C)C)OC(N)=O (stereo not drawn) [Bethanechol]
- Amount of urination, proportion for value before administration (%) ([1]; 0.1 mg/kg): 74.5 ± 13.1%
- At maximum urine flow rate Inner pressure of bladder, proportion for value before administration (%) ([1]; 0.1 mg/kg): 107.0 ± 7.1%
- Maximum urine flow rate, proportion for value before administration (%) ([1]; 0.1 mg/kg): 72.8 ± 9.8%
- Bladder compliance, proportion for value before administration (%) ([1]; 0.1 mg/kg): 75.7 ± 9.8%
- Bladder volume, proportion for value before administration (%) ([1]; 0.1 mg/kg): 86.0 ± 2.5%
- Amount of urination, proportion for value before administration (%) ([1]; 0.3 mg/kg): 63.5 ± 8.5%
- At maximum urine flow rate Inner pressure of bladder, proportion for value before administration (%) ([1]; 0.3 mg/kg): 99.2 ± 6.4%
- Maximum urine flow rate, proportion for value before administration (%) ([1]; 0.3 mg/kg): 81.00 ± 12.1%
- Bladder compliance, proportion for value before administration (%) ([1]; 0.3 mg/kg): 62.6 ± 6.8 %
- Bladder volume, proportion for value before administration (%) ([1]; 0.3 mg/kg): 85.3 ± 6.3%
- Amount of urination, proportion for value before administration (%) ([1]; 1 mg/kg): 39.1 ± 8.0 %
- At maximum urine flow rate Inner pressure of bladder, proportion for value before administration (%) ([1]; 1 mg/kg): 104.9 ± 13.0%
- Maximum urine flow rate, proportion for value before administration (%) ([1]; 1 mg/kg): 66.1 ± 12.3%
- Bladder compliance, proportion for value before administration (%) ([1]; 1 mg/kg): 45.3 ± 4.9 %
- Bladder volume, proportion for value before administration (%) ([1]; 1 mg/kg): 66.3 ± 6.0 %
- change of the parameters at urination and at collection of urine (text) [1]: lowered the amount of urination, bladder volume and bladder compliance significantly

Compound: O=C(CCCCNCCc1ccccc1Cl)c1cc2c3c(c1)CC(=O)N3CCC2 [Compound B1, 8-[5-[[2-(2-chlorophenyl)ethyl]amino]pentanoyl]-5,6-dihydro-4H-pyrrolo[3,2,1-ij]quinolin-2(1H)-one) hydrochloride]
- Bladder compliance, proportion for value before administration ([2]; 0.1 mg/kg): 105.1 ± 12.9
- Maximum urine flow rate, proportion for value before administration ([2]; 0.1 mg/kg): 170.4 ± 27.8
- IC50 ([3]; read-out: BuChE IC50): 5700 nM
- Selectivity b/a ([4]; BuChE IC50/AChE IC50 (Table 3)): 100
- IC50 ([4]; read-out: AchE IC50): 56 nM

Compound: CN(CCCCC(=O)c1ccc2[nH]c(=O)[nH]c2c1)CCc1ccccc1Cl [Compound B2, 5-[5-[[2-(2-chlorophenyl)ethyl](methyl)amino]pentanoyl]-1,3-dihydro-2H-benzoimidazol-2-one) hydrochloride]
- Bladder compliance, proportion for value before administration ([2]; 0.3 mg/kg): 95.0 ± 5.1
- Maximum urine flow rate, proportion for value before administration ([2]; 0.3 mg/kg): 138.1 ± 13.1
- IC50 ([3]; read-out: BuChE IC50): > 10000 nM
- Selectivity b/a ([4]; BuChE IC50/AChE IC50 (Table 3)): >45
- IC50 ([4]; read-out: AchE IC50): 224 nM

Compound: CN(CCCCC(=O)c1ccc2c(c1)n(C)c(=O)n2C)CCc1ccccc1Cl [Compound B3, 5-[5-[[2-(2-chlorophenyl)ethyl](methyl)amino]pentanoyl]-1,3-dimethyl-1,3-dihydro-2H-benzoimidazol-2-one) hydrochloride]
- Bladder compliance, proportion for value before administration ([2]; 0.1 mg/kg): 94.7 ± 11.1
- Maximum urine flow rate, proportion for value before administration ([2]; 0.1 mg/kg): 150.8 ± 19.4
- IC50 ([3]; read-out: BuChE IC50): > 10000 nM
- Selectivity b/a ([4]; BuChE IC50/AChE IC50 (Table 3)): >350
- IC50 ([4]; read-out: AchE IC50): 28 nM

Compound: CN(CCCCCCN(C)C(=O)Oc1ccc[n+](C)c1)C(=O)Oc1ccc[n+](C)c1 [Distigmine]
- inhibitory activity for human butyrylcholine esterase [3]: inhibitory activity was confirmed
- IC50 ([3]; read-out: Butyrylcholine esterase IC50): 540 nM
- Tension (%) (bladder muscle; 0.1 μM, 30 minutes, change of basic tension, 100 mM KCl contraction = 100%): −1.49 ± 0.30%
- Tension (%) (bladder muscle; [5]): −0.78 ± 0.50%
- Tension (%) (bladder muscle; [6]): −0.35 ± 0.73%
- Tension (%) (bladder muscle; [7]): 0.64 ± 0.49 %
- effect on basic tension (bladder muscle): increased tension slightly but significantly
- Amount of urination, proportion for value before administration (%) ([1]; 0.03 mg/kg): 73.9 ± 4.4%
- At maximum urine flow rate Inner pressure of bladder, proportion for value before administration (%) ([1]; 0.03 mg/kg): 112.7 ± 6.6%
- Maximum urine flow rate, proportion for value before administration (%) ([1]; 0.03 mg/kg): 75.1 ± 6.8%
- Bladder compliance, proportion for value before administration (%) ([1]; 0.03 mg/kg): 64.6 ± 6.0%
- Bladder volume, proportion for value before administration (%) ([1]; 0.03 mg/kg): 80.6 ± 3.3%
- Amount of urination, proportion for value before administration (%) ([1]; 0.1 mg/kg): 89.8 ± 10.3%
- At maximum urine flow rate Inner pressure of bladder, proportion for value before administration (%) ([1]; 0.1 mg/kg): 115.9 ± 4.2%
- Maximum urine flow rate, proportion for value before administration (%) ([1]; 0.1 mg/kg): 76.4 ± 5.8%
- Bladder compliance, proportion for value before administration (%) ([1]; 0.1 mg/kg): 53.4 ± 2.2 %
- Bladder volume, proportion for value before administration (%) ([1]; 0.1 mg/kg): 83.6 ± 5.9%
- Amount of urination, proportion for value before administration (%) ([1]; 0.3 mg/kg): 65.8 ± 11.9%
- At maximum urine flow rate Inner pressure of bladder, proportion for value before administration (%) ([1]; 0.3 mg/kg): 142.4 ± 6.1 %
- Maximum urine flow rate, proportion for value before administration (%) ([1]; 0.3 mg/kg): 49.2 ± 7.0%
- Bladder compliance, proportion for value before administration (%) ([1]; 0.3 mg/kg): 68.3 ± 7.9%
- Bladder volume, proportion for value before administration (%) ([1]; 0.3 mg/kg): 80.0 ± 4.5%
- change of the parameters at urination and at collection of urine (text) [1]: lowered the bladder compliance significantly
- change of the parameters at urination and at collection of urine (text) ([1]; listed as distigmine): did not show clear action for the amount of urination and the maximum urine flow rate and increased urination pressure significantly
- inhibition of the activity of human acetylcholine esterase [4]: inhibited the activity of human acetylcholine esterase
- selectivity for acetylcholine esterase inhibitory activity (text, words) [4]: had scarcely selectivity
- Selectivity b/a ([4]; BuChE IC50/AChE IC50 (Table 2)): 1.4
- IC50 ([4]; read-out: Acetylcholine esterase IC50): 380 nM

Compound: CN(C)C(=O)Oc1ccc[n+](C)c1 [Pyridostigmine]
- Tension (%) (bladder muscle; [5]): −1.49 ± 0.52%
- Tension (%) (bladder muscle; [6]): 0.04 ± 0.38%
- Tension (%) (bladder muscle; [7]): 2.87 ± 0.85 %
- Tension (%) (bladder muscle; 10 μM, 30 minutes, change of basic tension, 100 mM KCl contraction = 100%): 7.71 ± 1.30 %
- Tension (%) (bladder muscle; 30 μM, 30 minutes, change of basic tension, 100 mM KCl contraction = 100%): 14.38 ± 1.62 %
- effect on basic tension (bladder muscle): increased basic tension significantly and concentration-dependently

Compound: CC(C)NP(=O)(NC(C)C)OP(=O)(NC(C)C)NC(C)C [iso-OMPA, tetraisopropylpyrophosphoramide]
- inhibitory activity for human butyrylcholine esterase [3]: showed the inhibitory activity to only butyrylcholine esterase
- Tension (%) (bladder muscle; Table 5: iso-OMPA 10 μM, Compound A 0 μM): −1.31 ± 0.21%
- Tension (%) (bladder muscle; Table 5: iso-OMPA 100 μM, Compound A 0 μM): −0.85 ± 0.38%
- effect on basic tension (bladder muscle): alone did not influence tension either
